Test results from PMC9146500, “New Quinoline–Urea–Benzothiazole Hybrids as Promising Antitubercular Agents: Synthesis, In Vitro Antitubercular Activity, Cytotoxicity Studies, and In Silico ADME Profiling” (Pharmaceuticals, 2022).
Converted amounts (≈) assume the structure as drawn. “And” between values parts separate entries of the source, which are not always exact repeats. Equal values may be shown once. Read-outs that look alike come from different tables or passages of the source.

Assays:
[1] = tested on: Mycobacterium tuberculosis H37Rv pMSp12::GFP; experiment: microbe, parasite or virus in culture; assay type: cell-based; details: Mtb H37Rv
[2] = tested on: Mycobacterium tuberculosis H37Rv pMSp12::GFP; experiment: microbe, parasite or virus in culture; assay type: cell-based; details: Mtb H37Rv, protein-rich media, 7 days, read-out: MIC90 7H9/ADC/GLU/Tw 7 Days
MTT cytotoxicity assay = details: human; for IC20 at 24 h: IC20, HepG2, 24 h, MTT, concentration at which cells retain 80% viability, extrapolated from the dose–response curve
[3] = Mycobacterium tuberculosis, H37RV, 168 h, protein-poor media, 7 days, read-out: MIC90 7H9/CAS/GLU/Tx 7 Days
[4] = Mycobacterium tuberculosis, H37RV, 168 h
[5] = Mycobacterium tuberculosis, 168 h, protein-poor media, 7 days, read-out: MIC90 7H9/CAS/GLU/Tx 7 Days
[6] = protein-poor media, 7 days, read-out: MIC90 7H9/CAS/GLU/Tx 7 Days
[7] = both media (CAS and ADC) or medium not given

O=C(Nc1nc2ccc(F)cc2s1)n1ccnc1 [Compound 5b]
MIC90 [1, 3]: > 125 µM
MIC90 [2, 4]: > 125 µM

O=C(NNc1ccnc2cc(Cl)ccc12)Nc1nc2ccc([N+](=O)[O-])cc2s1 [Compound 6d, 2-(7-Chloroquinolin-4-yl)-N-(6-nitrobenzo[d]thiazol-2-yl)hydrazine-1-carboxamide]
MIC90 [1, 3]: > 125 µM
MIC90 [2, 4]: > 125 µM

O=C(NNc1ccnc2cc(Cl)ccc12)Nc1nc2ccc(F)cc2s1 [Compound 6c, 2-(7-Chloroquinolin-4-yl)-N-(6-fluorobenzo[d]thiazol-2-yl)hydrazine-1-carboxamide]
MIC90 [1, 3]: > 125 µM
MIC90 [2, 4]: > 125 µM

O=C(NCCCNc1ccnc2cc(Cl)ccc12)Nc1nc2ccccc2s1 [Compound 6l, 1-(3-((7-Chloroquinolin-4-yl)amino)propyl)-3-(benzo[d]thiazol-2-yl)urea]
viability at 24 h (MTT cytotoxicity assay): 100%
IC20 at 24 h (MTT cytotoxicity assay): 105 µM
MIC90 [1, 3]: 9.63 µM (≈ 3.97 µg/mL)
MIC90 [2]: 9.447 µM (≈ 3.89 µg/mL)
MIC90 [2, 4]: 9.45 µM (≈ 3.89 µg/mL)

O=C(NCCNc1ccnc2cc(Cl)ccc12)Nc1nc2ccc(F)cc2s1 [Compound 6h, 1-(6-Fluorobenzo[d]thiazol-2-yl)-3-(2-((7-chloroquinolin-4-yl)amino)ethyl)urea]
MIC [1, 5]: 62.5 µM (≈ 26 µg/mL)
MIC90 ([1]; Mycobacterium tuberculosis, H37RV, both media (CAS and ADC) or medium not given, read-out: MIC90): 62.5 µM (≈ 26 µg/mL)
MIC ([2]; Mycobacterium tuberculosis, 168 h): 62.5 µM (≈ 26 µg/mL)

O=C(NCCCNc1ccnc2cc(Cl)ccc12)Nc1nc2ccc(Cl)cc2s1 [Compound 6j, 1-(6-Chlorobenzo[d]thiazol-2-yl)-3-(3-((7-chloroquinolin-4-yl)amino)propyl)urea]
viability at 24 h (MTT cytotoxicity assay): 86%
IC20 at 24 h (MTT cytotoxicity assay): 26.3 µM
MIC90 [1, 6]: 4.389 µM (≈ 1.96 µg/mL)
MIC90 [1, 3]: 4.39 µM (≈ 1.96 µg/mL)
melting point: 286 to 288 °C
MIC90 [2, 4]: 11.7 µM (≈ 5.24 µg/mL)

O=C(NNc1ccnc2cc(Cl)ccc12)Nc1nc2ccccc2s1 [Compound 6a, N-(Benzo[d]thiazol-2yl)-2-(7-chloroquinolin-4-yl)hydrazine-1-carboxamide]
viability at 24 h (MTT cytotoxicity assay): 75%
IC20 at 24 h (MTT cytotoxicity assay): 15.1 µM
MIC90 [1, 6]: 21.001 µM (≈ 7.77 µg/mL)
MIC90 [1, 3]: 21 µM (≈ 7.77 µg/mL)
MIC90 [2, 4]: > 125 µM

CC(CNc1ccnc2cc(Cl)ccc12)NC(=O)Nc1nc2ccc(C(F)(F)F)cc2s1 (centres unmarked) [Compound 6u, 1-(1-((7-Chloroquinolin-4-yl)amino)propan-2-yl)-3-(6-(trifluoromethyl)benzo[d]thiazol-2-yl)urea]
viability at 24 h (MTT cytotoxicity assay): 100%
IC20 at 24 h (MTT cytotoxicity assay): 6.01 µM
MIC90 [1, 6]: 0.968 µM (≈ 0.465 µg/mL)
MIC90 [1, 3]: 0.97 µM (≈ 0.466 µg/mL)
MIC90 [2]: 5.732 µM (≈ 2.75 µg/mL)
MIC90 [2, 4]: 5.73 µM (≈ 2.75 µg/mL)

NCCCCCCNc1ccnc2cc(Cl)ccc12 [Compound 2e]
MIC90 [1, 3]: > 125 µM
MIC90 [2, 4]: > 125 µM

CC(CNc1ccnc2cc(Cl)ccc12)NC(=O)Nc1nc2ccc(Br)cc2s1 (centres unmarked) [Compound 6w, 1-(1-((7-Chloroquinolin-4-yl)amino)propan-2-yl)-3-(6-bromobenzo[d]thiazol-2-yl)urea]
viability at 24 h (MTT cytotoxicity assay): 19%
IC20 at 24 h (MTT cytotoxicity assay): 3.38 µM
MIC90 [1, 3]: 8.19 µM (≈ 4.02 µg/mL)
melting point: 246 to 248 °C
MIC90 [2, 4]: 14 µM (≈ 6.87 µg/mL)

O=C(NCCCCCCNc1ccnc2cc(Cl)ccc12)Nc1nc2ccc(Br)cc2s1 [Compound 6s, 1-(6-Bromobenzo[d]thiazol-2-yl)-3-(6-((7-chloroquinolin-4-yl)amino)hexyl)urea]
viability at 24 h (MTT cytotoxicity assay): 76%
IC20 at 24 h (MTT cytotoxicity assay): 7.02 µM
MIC90 [1, 3]: 8.76 µM (≈ 4.67 µg/mL)
melting point: 192 to 194 °C
MIC90 [2, 4]: 21 µM (≈ 11.2 µg/mL)

CC(CNc1ccnc2cc(Cl)ccc12)NC(=O)Nc1nc2ccc(F)cc2s1 (centres unmarked) [Compound 6v, 1-(1-((7-Chloroquinolin-4-yl)amino)propan-2-yl)-3-(6-fluorobenzo[d]thiazol-2-yl)urea]
MIC90 [1, 3]: > 125 µM
melting point: 228 to 230 °C
MIC90 [2, 4]: > 125 µM

O=C(NCCCNc1ccnc2cc(Cl)ccc12)Nc1nc2ccc(F)cc2s1 [Compound 6n, 1-(6-Fluorobenzo[d]thiazol-2-yl)-3-(3-((7-chloroquinolin-4-yl)amino)propyl)urea]
MIC90 [1, 7]: devoid of any activity
MIC90 [1, 3]: > 125 µM
melting point: 241 to 243 °C
MIC90 [2, 4]: 125 µM (≈ 53.7 µg/mL)

O=C(NCCCCNc1ccnc2cc(Cl)ccc12)Nc1nc2ccc(Cl)cc2s1 [Compound 6o, 1-(6-Chlorobenzo[d]thiazol-2-yl)-3-(4-((7-chloroquinolin-4-yl)amino)butyl)urea]
viability at 24 h (MTT cytotoxicity assay): 30%
IC20 at 24 h (MTT cytotoxicity assay): 2.13 µM
MIC [1, 5]: 7.43 µM (≈ 3.42 µg/mL)
MIC90 [1, 3]: 7.46 µM (≈ 3.43 µg/mL)
melting point: 189 to 191 °C and 189.8 to 191.3 °C
MIC90 [2, 4]: 23.5 µM (≈ 10.8 µg/mL)

O=C(NCCNc1ccnc2cc(Cl)ccc12)Nc1nc2ccc(Cl)cc2s1 [Compound 6f, 1-(6-Chlorobenzo[d]thiazol-2-yl)-3-(2-((7-chloroquinolin-4-yl)amino)ethyl)urea]
MIC90 [1, 3]: 125 µM (≈ 54 µg/mL)
melting point: 244 to 245 °C
MIC90 [2, 4]: > 125 µM

O=C(NCCCCNc1ccnc2cc(Cl)ccc12)Nc1nc2ccc(F)cc2s1 [Compound 6q, 1-(6-Fluorobenzo[d]thiazol-2-yl)-3-(4-((7-chloroquinolin-4-yl)amino)butyl)urea]
MIC90 [1, 7]: not active at all
MIC90 [1, 3]: > 125 µM
melting point: 256 to 259 °C
MIC90 [2, 4]: > 125 µM

O=C(NCCCCCCNc1ccnc2cc(Cl)ccc12)Nc1nc2ccc(Cl)cc2s1 [Compound 6r, 1-(6-Chlorobenzo[d]thiazol-2-yl)-3-(6-((7-chloroquinolin-4-yl)amino)hexyl)urea]
viability at 24 h (MTT cytotoxicity assay): 72%
IC20 at 24 h (MTT cytotoxicity assay): 5.47 µM
MIC90 [1, 3]: 7.6 µM (≈ 3.71 µg/mL)
melting point: 239 to 241 °C
MIC90 [2, 4]: 14.6 µM (≈ 7.14 µg/mL)

NC(N)=O [Urea]
MIC90 [1, 6]: >125 µM
MIC90 [2]: >125 µM

O=C(NCCCNc1ccnc2cc(Cl)ccc12)Nc1nc2ccc(C(F)(F)F)cc2s1 [Compound 6i, 1-(3-((7-Chloroquinolin-4-yl)amino)propyl)-3-(6-(trifluoromethyl)benzo[d]thiazol-2-yl)urea]
viability at 24 h (MTT cytotoxicity assay): 87%
IC20 at 24 h (MTT cytotoxicity assay): 11.2 µM
MIC90 [1, 3]: 7.81 µM (≈ 3.75 µg/mL)
melting point: 198 to 200 °C
MIC90 [2, 4]: 12.8 µM (≈ 6.16 µg/mL)

O=C(NNc1ccnc2cc(Cl)ccc12)Nc1nc2ccc(C(F)(F)F)cc2s1 [Compound 6b, 2-(7-Chloroquinolin-4-yl)-N-(6-(trifluoromethyl)benzo[d]thiazol-2-yl)hydrazine-1-carboxamide]
MIC90 [1, 7]: excellent activity in both media
MIC90 [1, 3]: 4.94 µM (≈ 2.16 µg/mL)
MIC90 [2, 4]: 6.85 µM (≈ 3 µg/mL)

O=C(NCCCNc1ccnc2cc(Cl)ccc12)Nc1nc2ccc(Br)cc2s1 [Compound 6m, 1-(6-Bromobenzo[d]thiazol-2-yl)-3-(3-((7-chloroquinolin-4-yl)amino)propyl)urea]
viability at 24 h (MTT cytotoxicity assay): 100%
IC20 at 24 h (MTT cytotoxicity assay): 25.1 µM
MIC90 [1, 3]: 15.9 µM (≈ 7.82 µg/mL)
melting point: 254 to 257 °C
MIC90 [2, 4]: 16.9 µM (≈ 8.28 µg/mL)

CO[C@H]1/C=C/O[C@@]2(C)Oc3c(C)c(O)c4c(O)c(c(/C=N/N5CCN(C)CC5)c(O)c4c3C2=O)NC(=O)/C(C)=C\C=C\[C@H](C)[C@H](O)[C@@H](C)[C@@H](O)[C@@H](C)[C@H](OC(C)=O)[C@@H]1C [RIF, Rifampicin, reference compound]
MIC90 [1, 3]: 0.03 µM (≈ 0.0247 µg/mL)
MIC90 [2, 4]: 0.001 µM (≈ 0.000823 µg/mL)

O=C(NCCNc1ccnc2cc(Cl)ccc12)Nc1nc2ccc(C(F)(F)F)cc2s1 [Compound 6e, 1-(2-((7-Chloroquinolin-4-yl)amino)ethyl)-3-(6-(trifluoromethyl)benzo[d]thiazol-2-yl)urea]
melting point: 249 to 251 °C
